Experimental data reported in PubChem BioAssay (NCI).
“And” between values parts separate entries of the source, which are not always exact repeats. Equal values may be shown once.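 Step 1: Grow cells in 96-well plates. Step 2: Expose to compound for 48 hours at 5 concentrations. Step 3: Interpolate endpoints linearly; if unreached, use highest concentration. GI50 marks 50% less growth. TGI: total growth inhibition.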

Test system: MDA-MB-468 breast
Experiment: inhibition of tumour cell growth, NCI panel, 48 h

SMILES | GI50 | TGI
N#Cc1c(NC(=O)c2ccc(F)cc2)sc2c1CCCC2 | > 25000 nM | > 25000 nM
CC(=O)CC/C=C(\C)[C@H](O)[C@H](C)C(=O)O[C@H]1C[C@H](C)C=C2C=C[C@@]3(C)O[C@@H](O)CC(=O)[C@]3(C)[C@H]21 | 454 nM | 2000 nM
CC1(C)N=C(N)N=C(N)N1c1ccc(Cl)cc1 | 873 nM | > 100000 nM
COc1cc(/C=C2\CCC/C(=C\c3ccc(O)c(OC)c3)C2=O)ccc1O | 1460 nM | 3480 nM
CN1CCN(c2ccc(Nc3nc(NCCCNS(=O)(=O)c4ccccc4)c4sccc4n3)cc2)CC1 | 11800 nM | 26400 nM
O=C1c2cccnc2C(=O)c2c1c(C(=O)OCCN1CCCCC1)c1ccccn21 | 869 nM | 2840 nM
C=CC(=O)N1C[C@@H]2CCOc3c(Cl)c(-c4c(O)cccc4F)c(F)c4ncnc(c34)N2C[C@H]1C | 2330 nM | 10400 nM
COC(=O)c1ccccc1CC1Cc2cc3c(cc2C1=O)CCC3 (configuration not stated) | 10600 nM | 42100 nM
CC(C)(C)CC(C)(C)c1ccc(O)c(Cc2ccc(Cl)cc2Cl)c1 | 1660 nM | 3080 nM
CC(C)(C)c1cc(NC(=O)Nc2ccc(-c3cn4c(n3)sc3cc(OCCN5CCOCC5)ccc34)cc2)no1 | 3640 nM and 2550 nM and > 10000 nM | 12200 nM and 14200 nM and > 10000 nM
NC(=S)N/N=C1\c2ccccc2-c2c(F)c(F)c(F)c(F)c21 | 2490 nM | 5140 nM
Cc1ccc(C=C2C(Cl)=C(Cl)C(Cl)=C2Cl)cc1 | 189 nM | 573 nM
COc1ccc(C2CC(c3ccc(Nc4ccnc5cc(Cl)ccc45)cc3)=NN2C=O)cc1 (configuration not stated) | 1000 nM | 6840 nM
COc1ccc(/C=C2\COc3ccc(O)c(O)c3C2=O)c(OC)c1OC | 2180 nM | 6280 nM
COCCOC1=CC(=O)c2c(O)ccc(O)c2C1=O | 1270 nM | 2780 nM
COC1=C(C)C(=O)c2c(c(CCCl)c3n2CCC3OC(C)=O)C1=O (configuration not stated) | 5010 nM | 22500 nM
COc1cc(/C=C/c2cc(/C=C/c3ccc(O)c(OC)c3)n(C(=O)Nc3ccccc3Cl)n2)ccc1O | 264 nM | 748 nM
COc1cc(CNCCN2C(=O)c3ccc4c5c(ccc(c35)C2=O)C(=O)N(CCNCc2cc(OC)c(OC)c(OC)c2)C4=O)cc(OC)c1OC | 123 nM | 323 nM
Cn1c(=O)nc2n(-c3ccc(Cl)cc3)c3cc(Cl)ccc3nc-2c1=O | 1590 nM | 3070 nM
CN(C)CC(=O)Nc1ccc2ncnc(Nc3ccc(Oc4cccc(C(F)(F)F)c4)c(Cl)c3)c2c1 | 1280 nM | 3230 nM
COc1cccc(-c2cc(=O)c3cc(N4CCOCC4)ccc3[nH]2)c1 | 927 nM | > 100000 nM
COC(=O)[C@]12CC[C@@H](C)[C@H](C)[C@@H]1C1=CC[C@@H]3[C@@]4(C)C[C@@H](OC(=O)/C=C/c5ccccc5)[C@H](O)[C@@](C)(CO)[C@@H]4[C@H](O)C[C@@]3(C)[C@]1(C)CC2 | 2540 nM | 8940 nM
O=C(C=P(c1ccccc1)(c1ccccc1)c1ccccc1)CCl | 268 nM | 1280 nM

SMILES | GI50 | TGI
Cn1cc(-c2nc(-c3c[nH]c4ncccc34)cs2)c2ccccc21 | 314 nM | 820 nM
COc1ccc(C(=NN=C(N)N)c2ccc(OC)cc2)cc1 | 1710 nM | 4710 nM
O=C1CC(c2ccccc2)Cc2nc3ccc(Br)cc3cc21 (configuration not stated) | 2230 nM | 7940 nM
O=C(c1ccc(C(F)(F)F)c(Cl)c1)N(Cc1ccc(Cl)cc1)c1ccc(-c2cc(C(F)(F)F)[nH]n2)c(O)c1 | 928 nM | 3910 nM
CCCC(=O)NC(c1ccc2c(c1)OC(F)(F)O2)c1cc(C)c2cccnc2c1O (configuration not stated) | 370 nM | 2210 nM
CC(C)[C@@](O)(c1ccc2cc(OC(F)F)c(OC(F)F)cc2c1)c1cn[nH]n1 | 12900 nM | 47400 nM
O=Nc1c(-c2c(O)[nH]c3cc(Br)ccc23)[nH]c2ccccc12 | 2000 nM | 4930 nM
CCc1cnn2c(NCc3ccc[n+]([O-])c3)cc(N3CCCC[C@H]3CCO)nc12 | < 10 nM and 2.21 nM | < 10 nM and 5.88 nM
COC(=O)c1cc2oc(/C=C3/SC(=S)N(N)C3=O)cc2n1Cc1ccccc1 | 74400 nM | > 100000 nM
COc1ccc(CCN(CC(=O)N(CC(N)=O)C2CCC[C@@H]2OCc2ccccc2)C(=O)CN(C(=O)CN(CCc2ccc(Cl)cc2)C(=O)CN(C(=O)CN(C)Cc2ccccc2F)[C@H](C)C2CCCCC2)[C@H](C)C2CCCCC2)cc1OC (some centres not stated) | 941 nM | 4200 nM
C#Cc1cccc(Nc2ncnc3ccc(OCCCCNCCS(C)(=O)=O)cc23)c1 | 94 nM | 666 nM
O=c1cnnc(N/N=C/c2ccccc2O)[nH]1 | 265 nM | 3320 nM
CC1(C)N=C(N)N=C(N)N1c1ccc(OCCCNC(=O)Nc2cccc(S(=O)(=O)F)c2)c(Cl)c1 | 15700 nM | > 100000 nM
COc1cc(N2C(=O)[C@H](c3ccccc3)C2c2ccc(SC)cc2)cc(OC)c1OC (some centres not stated) | 27.1 nM | 92.9 nM
Cc1ccc2cccc(OC(=O)Nc3cccc(C(F)(F)F)c3)c2n1 | 3650 nM | 12900 nM
Oc1c(Cl)cc(Cl)cc1/C=N/Nc1nnc(N/N=C/c2cc(Cl)cc(Cl)c2O)c2ccccc12 | 337 nM | 1880 nM
COc1ccc(NC2=C(I)C(=O)c3ncccc3C2=O)cc1 | 1350 nM | 2940 nM
CC(C)(C)c1cc(/C=N/NC(=O)c2ccccc2NC(=O)c2cccs2)c(O)c(C(C)(C)C)c1 | 386 nM | 20500 nM
Cn1cc(C2=C(c3cn(-c4ccccc4)c4ccccc34)C(=O)NC2=O)c2ccccc21 | 7580 nM | > 25000 nM
CN(C)CCCSc1ccccc1NC1=C(Cl)C(=O)C(Nc2ccccc2SCCCN(C)C)=C(Cl)C1=O | 1520 nM | 3220 nM
C#CC(=O)Nc1cccc2c1cc(C)n2-c1nc2c(c(NCc3ccccc3)n1)CCCC2 | 211 nM | 596 nM
Clc1cc(Cl)c(OCCCCCCN2CCNCC2)c(Cl)c1 | 2140 nM | 4610 nM
CC(C)(c1ccccc1)c1cc(O)c(C(C)(C)c2ccccc2)cc1O | 376 nM | 3720 nM
